Measured values: US8530652B2, “Pyrrolopyrazoles, potent kinase inhibitors” (Agouron Pharmaceuticals, Inc., priority 2005, dated 2013)

Biological target: PAK4 kinase domain (PAK4 KD) (Homo sapiens (Human), UniProt O96013)
Assay: PAK4 kinase domain enzymatic assay (coupled PK/LDH, NADH absorbance at 340 nm)
Format: biochemical
Settings: PAK4 kinase domain, 25 nM PAK4 KD, 0.04 mM ATP, pH 7.5
Excerpt: Cloning, expression, and purification of recombinant PAK4 Kinase domain (PAK4 KD): The cDNA coding for PAK4 was amplified from the EST clone (#12) (purchased from Research Genetics) by using PCR. […] The PCR amplified product was cloned into Topo vector (Invitrogen Inc.), and verified by DNA sequencing. PAK4 KD was then subcloned into expression plasmid pET28a(+), pET24a(+), or pGST4.5. The recombinant plasmids containing PAK4 KD was transformed into BL21(DE3) cells for recombinant protein expression. […] The cells were then harvested and lyzed for protein purification. Ni-NTA column (pET28a(+), pET24a(+)) and glutathione column (pGST4.5) were used for the purification.
PAK4 kinase domain enzymatic assay conditions: the enzymatic activity of PAK4 KD was measured by its ability to catalyze the transfer of a phosphate residue from a nucleoside triphosphate to an amino acid side chain of a commercially available peptide (amino acid sequence […]). The conversion of ATP to ADP accompanies the catalytic reaction. The PAK4 KD catalyzed production of ADP from ATP was coupled to the oxidation of NADH through the activities of pyruvate kinase (PK) and lactate dehydrogenase (LDH). The conversion of NADH to NAD^+ is monitored by the decrease in absorbance at 340 nm (e340=6.22 cm^−1mM^−1) using a Molecular Devices SPECTRAMAX 190 in conjunction with the Biomec FX. Typical reaction solutions contain 2 mM phosphoenolpyruvate, 0.35 mM NADH, 10 mM MgCl2, 1 mM DTT, 0.4 mM peptide ([…]) 0.04 mM ATP, 1 units/mL PK, 1 units/mL LDH, 0.01% Tween 20 in 50 mM HEPES, pH 7.5. […] The PAK KD Ki of each compound of the invention (the inhibitor) was calculated based on multiple of Percent Inhibition numbers of the inhibitor at different inhibitor concentrations. The peptide (amino sequence […]) was purchased from American Peptide Company. NADH, MgCl2, HEPES, DTT, ATP and PK/LDH were purchased from Sigma. Tween 20 was purchased from Calbiochem.

Sequence of PAK4 kinase domain (PAK4 KD) (O96013 321-572): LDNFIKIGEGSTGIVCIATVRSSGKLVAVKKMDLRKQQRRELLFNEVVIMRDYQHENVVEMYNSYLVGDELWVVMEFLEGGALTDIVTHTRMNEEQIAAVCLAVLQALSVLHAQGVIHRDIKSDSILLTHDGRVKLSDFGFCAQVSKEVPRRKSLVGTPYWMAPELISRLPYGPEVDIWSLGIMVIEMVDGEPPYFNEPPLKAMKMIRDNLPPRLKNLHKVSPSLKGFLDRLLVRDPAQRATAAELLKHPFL

| Ki [nM] | Compound |
| --- | --- |
| 960 | CSc1nc(Nc2n[nH]c3c2CN(C(=O)N[C@@H]2C[C@H]2c2ccccc2)C3(C)C)cc(C(F)(F)F)n1 (relative stereo) [Example 11, 6,6-dimethyl-3-{[2-(methylthio)-6-(trifluoromethyl)pyrimidin-4-yl]amino}-N-[trans-2-phenylcyclopropyl]-4,6-dihydropyrrolo[3,4-c]pyrazole-5(1H)-carboxamide] |
| 84 | Cc1csc2c(Nc3n[nH]c4c3CN(C(=O)N3C[C@@H]5CCCN5C[C@@H]3C)C4(C)C)ncnc12 [Example 81, N-(6,6-dimethyl-5-{[(3S,8aS)-3-methylhexahydropyrrolo[1,2-a]pyrazin-2(1H)-yl]carbonyl}-1,4,5,6-tetrahydropyrrolo[3,4-c]pyrazol-3-yl)-7-methylthieno[3,2-d]pyrimidin-4-amine] |
| 190 | COc1nc(Nc2n[nH]c3c2CN(C(=O)N[C@@H]2C[C@H]2c2ccccc2)C3(C)C)nc(N2CCCC2)n1 (relative stereo) [Example 19, 3-[(4-methoxy-6-pyrrolidin-1-yl-1,3,5-triazin-2-yl)amino]-6,6-dimethyl-N-[trans-2-phenylcyclopropyl]-4,6-dihydropyrrolo[3,4-c]pyrazole-5(1H)-carboxamide] |
| 270 | CC1(C)c2[nH]nc(Nc3nccc(C(F)(F)F)n3)c2CN1C(=O)N[C@H]1C[C@@H]1c1ccccc1 (relative stereo) [Example 28, 6,6-dimethyl-N-[trans-2-phenylcyclopropyl]-3-{[4-(trifluoromethyl)pyrimidin-2-yl]amino}-4,6-dihydropyrrolo[3,4-c]pyrazole-5(1H)-carboxamide] |
| 100 | CC1(C)c2[nH]nc(Nc3ncnc4ccccc34)c2CN1C(=O)N[C@@H]1C[C@H]1c1ccccc1 (relative stereo) [Example 85, 3-(quinazolin-4-ylamino)-6,6-dimethyl-N-[trans-2-phenylcyclopropyl]-4,6-dihydropyrrolo[3,4-c]pyrazole-5(1H)-carboxamide] |
| 770 | CNC(=O)[C@@H]1CCCN1c1nc(Nc2n[nH]c3c2CN(C(=O)NC2CC2c2ccccc2)C3(C)C)nc(OC)n1 (some centres unmarked) [Example 17] |
| 2500 | Cc1ncnc(Nc2n[nH]c3c2CN(C(=O)N2C[C@@H]4CCCN4C[C@@H]2C)C3(C)C)c1F [Example 82, N-(5-fluoro-6-methylpyrimidin-4-yl)-6,6-dimethyl-5-{[(3S,8aS)-3-methylhexahydropyrrolo[1,2-a]pyrazin-2(1H)-yl]carbonyl}-1,4,5,6-tetrahydropyrrolo[3,4-c]pyrazol-3-amine] |
| 780 | CC1(C)c2[nH]nc(Nc3cc(C(F)(F)F)ccn3)c2CN1C(=O)N[C@H]1C[C@@H]1c1ccccc1 (relative stereo) [Example 25, 3-[(4-trifluoromethylpyridin-2-yl)amino]-6,6-dimethyl-N-[trans-2-phenylcyclopropyl]-4,6-dihydropyrrolo[3,4-c]pyrazole-5(1H)-carboxamide] |
| 5.2 | Cc1cc2c(Nc3n[nH]c4c3CN(C(=O)O[C@H](CN(C)C)c3ccccc3)C4(C)C)ncnc2s1 [Example 71, (1S)-2-(dimethylamino)-1-phenylethyl 6,6-dimethyl-3-[(6-methylthieno[2,3-d]pyrimidin-4-yl)amino]-4,6-dihydropyrrolo[3,4-c]pyrazole-5(1H)-carboxylate] |
| 240 | COc1nc(Nc2n[nH]c3c2CN(C(=O)NC2CC2c2ccccc2)C3(C)C)nc(N2CCC[C@H]2C(N)=O)n1 (stereo partly drawn) [Example 21, 3-({4-[(2S)-2-(aminocarbonyl)pyrrolidin-1-yl]-6-methoxy-1,3,5-triazin-2-yl}amino)-6,6-dimethyl-N-[trans-2-phenylcyclopropyl]-4,6-dihydropyrrolo[3,4-c]pyrazole-5(1H)-carboxamide] |
| 220 | Cc1cc(C(F)(F)F)cc(Nc2n[nH]c3c2CN(C(=O)N[C@H]2C[C@@H]2c2ccccc2)C3(C)C)n1 (relative stereo) [Example 26, 3-[(4-trifluoromethyl-6-methylpyridin-2-yl)amino]-6,6-dimethyl-N-[trans-2-phenylcyclopropyl]-4,6-dihydropyrrolo[3,4-c]pyrazole-5(1H)-carboxamide] |
| 720 | CN(C)c1nc(Nc2n[nH]c3c2CN(C(=O)NC2C[C@@H]2c2ccccc2)C3(C)C)nc(N2CCC[C@H]2C(N)=O)n1 (some centres unmarked) [Example 22] |
| 660 | CC1(C)c2[nH]nc(Nc3cc(C#N)ccn3)c2CN1C(=O)N[C@H]1C[C@@H]1c1ccccc1 (relative stereo) [Example 29, 3-[(4-cyanopyridin-2-yl)amino]-6,6-dimethyl-N-[trans-2-phenylcyclopropyl]-4,6-dihydropyrrolo[3,4-c]pyrazole-5(1H)-carboxamide] |
| 940 | CN(C)C[C@@H](NC(=O)N1Cc2c(Nc3ncnc4c3ncn4C)n[nH]c2C1(C)C)c1ccccc1 [Example 57, N-[(1S)-2-(dimethylamino)-1-phenylethyl]-6,6-dimethyl-3-[(9-methyl-9H-purin-6-yl)amino]-4,6-dihydropyrrolo[3,4-c]pyrazole-5(1H)-carboxamide] |
| 610 | CC1(C)c2[nH]nc(Nc3nc(N)nc(Cl)n3)c2CN1C(=O)N[C@@H]1C[C@H]1c1ccccc1 (relative stereo) [Example 8, 3-[(4-amino-6-chloro-1,3,5-triazin-2-yl)amino]-6,6-dimethyl-N-[trans-2-phenylcyclopropyl]-4,6-dihydropyrrolo[3,4-c]pyrazole-5(1H)-carboxamide] |
| 640 | Cc1cc(C)nc(Nc2n[nH]c3c2CN(C(=O)NC2C[C@@H]2c2ccccc2)C3(C)C)n1 (some centres unmarked) [Example 24] |
| 270 | COc1nc(Nc2n[nH]c3c2CN(C(=O)N[C@H]2C[C@@H]2c2ccccc2)C3(C)C)nc(OC)n1 (relative stereo) [Example 14, 3-[(4,6-dimethoxy-1,3,5-triazin-2-yl)amino]-6,6-dimethyl-N-[trans-2-phenylcyclopropyl]-4,6-dihydropyrrolo[3,4-c]pyrazole-5(1H)-carboxamide] |
| 55 | CC1(C)c2[nH]nc(Nc3nc(C4CC4)nc4ccccc34)c2CN1C(=O)N[C@@H]1C[C@H]1c1ccccc1 (relative stereo) [Example 86, 3-[(2-cyclopropylquinazolin-4-yl)amino]-6,6-dimethyl-N-[trans-2-phenylcyclopropyl]-4,6-dihydropyrrolo[3,4-c]pyrazole-5(1H)-carboxamide] |
| 1000 | CC1(C)c2[nH]nc(Nc3ncncc3F)c2CN1C(=O)N[C@H]1C[C@@H]1c1ccccc1 (relative stereo) [Example 48, 3-[(5-fluoropyrimidin-4-yl)amino]-6,6-dimethyl-N-[trans-2-phenylcyclopropyl]-4,6-dihydropyrrolo[3,4-c]pyrazole-5(1H)-carboxamide] |
| 200 | CC1(C)c2[nH]nc(Nc3cccc(C(F)(F)F)n3)c2CN1C(=O)N[C@H]1C[C@@H]1c1ccccc1 (relative stereo) [Example 27, 3-[(6-trifluoromethylpyridin-2-yl)amino]-6,6-dimethyl-N-[trans-2-phenylcyclopropyl]-4,6-dihydropyrrolo[3,4-c]pyrazole-5(1H)-carboxamide] |
| 140 | CCc1cc(Nc2n[nH]c3c2CN(C(=O)N[C@H](CN(C)C)c2ccccc2)C3(C)C)ncn1 [Example 54, N-[(1S)-2-(Dimethylamino)-1-phenylethyl]-3-[(6-ethylpyrimidin-4-yl)amino]-6,6-dimethyl-4,6-dihydropyrrolo[3,4-c]pyrazole-5(1H)-carboxamide] |

| Compound | Ki [nM] |
| --- | --- |
| CC1(C)c2[nH]nc(Nc3cc(Cl)nc(Cl)n3)c2CN1C(=O)N[C@H]1C[C@@H]1c1ccccc1 (relative stereo) [Example 4, 3-[(2,6-dichloropyrimidin-4-yl)amino]-6,6-dimethyl-N-[trans-2-phenylcyclopropyl]-4,6-dihydropyrrolo[3,4-c]pyrazole-5(1H)-carboxamide] | 110 |
| COc1nc(Nc2n[nH]c3c2CN(C(=O)NC2CC2c2ccccc2)C3(C)C)nc(N2CC2C)n1 (stereo not drawn) [Example 18, 3-{[4-methoxy-6-(2-methylaziridin-1-yl)-1,3,5-triazin-2-yl]amino}-6,6-dimethyl-N-[trans-2-phenylcyclopropyl]-4,6-dihydropyrrolo[3,4-c]pyrazole-5(1H)-carboxamide] | 340 |
